Calls of active or inactive are those of the source. No cut-off for these calls is given here.
Tests used:
HeLa [1] = assay: Antiproliferative activity against human HeLa cells by MTT assay; assay type: functional, cell-based
A549 [2] = assay: cells; details: Homo sapiens
Description: Antiproliferative activity against human A549 cells by MTT assay

[3] = molecular target: T1, Histone-lysine N-methyltransferase EZH2 (Homo sapiens, UniProt Q15910); assay: Inhibition of EZH2 (unknown origin)
Target sequence in this assay (Q15910 whole entry): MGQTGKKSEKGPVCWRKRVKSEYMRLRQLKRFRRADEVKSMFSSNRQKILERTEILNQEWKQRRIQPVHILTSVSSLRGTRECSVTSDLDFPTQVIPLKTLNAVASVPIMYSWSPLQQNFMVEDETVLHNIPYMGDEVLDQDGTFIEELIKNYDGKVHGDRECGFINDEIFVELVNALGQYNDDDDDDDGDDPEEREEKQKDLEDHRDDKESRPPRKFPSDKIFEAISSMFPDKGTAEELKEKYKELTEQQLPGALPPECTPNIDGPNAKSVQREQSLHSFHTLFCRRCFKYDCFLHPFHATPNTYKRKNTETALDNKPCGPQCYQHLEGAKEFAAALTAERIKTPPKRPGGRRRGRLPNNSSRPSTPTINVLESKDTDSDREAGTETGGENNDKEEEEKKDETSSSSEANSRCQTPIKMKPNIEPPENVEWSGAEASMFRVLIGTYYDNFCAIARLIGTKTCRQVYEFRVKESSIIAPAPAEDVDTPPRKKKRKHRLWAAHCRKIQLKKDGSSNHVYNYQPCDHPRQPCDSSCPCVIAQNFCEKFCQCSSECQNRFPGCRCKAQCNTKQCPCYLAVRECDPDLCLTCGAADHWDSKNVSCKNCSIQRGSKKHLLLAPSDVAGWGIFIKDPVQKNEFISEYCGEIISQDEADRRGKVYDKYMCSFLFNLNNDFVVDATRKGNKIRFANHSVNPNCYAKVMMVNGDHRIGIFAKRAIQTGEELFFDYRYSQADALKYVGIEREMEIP

[4] = molecular target: Histone-lysine N-methyltransferase EZH2 (Homo sapiens, UniProt Q15910, Y641F); assay: Inhibition of EZH2 Y641F mutant (unknown origin)
Sequence of Histone-lysine N-methyltransferase EZH2 (Homo sapiens, UniProt Q15910, Y641F) (Q15910 whole entry Y641F): as the sequence (Q15910 whole entry) above, with Y641F counted along it

A549 [5] = assay: Inhibition of colony formation in human A549 cells assessed as clone formation rate relative to control; assay type: functional; design: concentration or dose not given beside the values
A549 [6] = assay: Induction of apoptosis in human A549 cells assessed as late apoptotic cells incubated for 24 hrs by Annexin V/PI staining based flow cytometry analysis (reference value: 5.03 %); assay type: functional
A549 [7] = assay: Induction of apoptosis in human A549 cells assessed as necrotic cells incubated for 24 hrs by Annexin V/PI staining based flow cytometry analysis (reference value: 1.35 %); assay type: functional
A549 [8] = assay: Induction of apoptosis in human A549 cells assessed as early apoptotic cells incubated for 24 hrs by Annexin V/PI staining based flow cytometry analysis (reference value: 1.17 %); assay type: functional
A549 [9] = assay: Induction of apoptosis in human A549 cells assessed as viable cells incubated for 24 hrs by Annexin V/PI staining based flow cytometry analysis (reference value: 91.6 %); assay type: functional
HeLa [10] = assay: Inhibition of colony formation in human HeLa cells assessed as clone formation rate relative to control; assay type: functional; design: scale not given: the % may be the effect or the level left
[11] = molecular target: T1, Histone-lysine N-methyltransferase EZH2; assay: Inhibition of EZH2 in human A549 cells assessed as reduction in H3K27me3 expression level incubated for 72 hrs by Western blotting analysis; assay type: cell-based; details: dose 1-3 µM
Target sequence in this assay (Q15910 whole entry, looked up): as the sequence (Q15910 whole entry) above

HeLa [12] = assay: Inhibition of cell migration in human HeLa cells assessed as reduction of cell scratch width incubated for 24 hrs; assay type: functional, cell-based
HeLa [13] = assay: Induction of apoptosis in human HeLa cells assessed as early apoptotic cells by Annexin V/PI staining based flow cytometry analysis (reference value: 1.72 %); assay type: functional
HeLa [14] = assay: Induction of apoptosis in human HeLa cells assessed as late apoptotic cells by Annexin V/PI staining based flow cytometry analysis (reference value: 6.46 %); assay type: functional
HeLa [15] = assay: Induction of apoptosis in human HeLa cells assessed as nectrotic cells by Annexin V/PI staining based flow cytometry analysis (reference value: 0.782 %); assay type: functional
HeLa [16] = assay: Induction of apoptosis in human HeLa cells assessed as viable cells by Annexin V/PI staining based flow cytometry analysis (reference value: 91.0 %); assay type: functional
[17] = molecular target: T1, Histone-lysine N-methyltransferase EZH2; assay: Inhibition of EZH2 in human A549 cells assessed as reduction in H3K27me3 expression level at 3 uM incubated for 72 hrs by Western blotting analysis; assay type: cell-based
Target sequence in this assay (Q15910 whole entry, looked up): as the sequence (Q15910 whole entry) above

Row | SMILES | IC50 (HeLa [1]) | IC50 (A549 [2]) | IC50 [3] | IC50 [4] | inhibition [11] | inhibition [17] | Activity (A549 [5]) | Activity (A549 [6]) | Activity (A549 [7]) | Activity (A549 [8]) | Activity (A549 [9]) | Activity (HeLa [10]) | inhibition (HeLa [12]) | Activity (HeLa [13]) | Activity (HeLa [14]) | Activity (HeLa [15]) | Activity (HeLa [16])
1 | Cc1cc(C)c(CNC(=O)c2cc(-c3ccc4ncccc4c3)cc3[nH]c(=O)ccc23)c(=O)[nH]1 | > 50000 nM | > 50000 nM | 8.23 nM | 11.7 nM | – | – | – | – | – | – | – | – | – | – | – | – | –
2 | Cc1cc(C)c(CNC(=O)c2cc(-c3ccc(C(=O)O)cc3)cc3[nH]c(=O)ccc23)c(=O)[nH]1 | 20400 nM | 12800 nM | 2.12 nM | 6.45 nM | – | – | 58% | – | – | – | – | 49% | – | – | – | – | –
3 | COc1c(C)cccc1-c1cc(C(=O)NCc2c(C)cc(C)[nH]c2=O)c2ccc(=O)[nH]c2c1 | > 50000 nM | 35700 nM | 4.21 nM | 10.4 nM | – | – | – | – | – | – | – | – | – | – | – | – | –
4 | CCN(c1cc(-c2ccc(CN3CCOCC3)cc2)cc(C(=O)NCc2c(C)cc(C)[nH]c2=O)c1C)C1CCOCC1 [TAZEMETOSTAT] | 27700 nM | 15800 nM | – | – | – | – | 45% | 52.6% | 10.8% | 2.3% | 34.3% | 47% | – | 5.21% | 19.6% | 1.2% | 74%
5 | Cc1cc(C)c(CNC(=O)c2cc(-c3cccnc3)cc3[nH]c(=O)ccc23)c(=O)[nH]1 | 47400 nM | 24300 nM | 3.78 nM | 8.54 nM | – | – | – | – | – | – | – | – | – | – | – | – | –
6 | COc1cc(-c2cc(C(=O)NCc3c(C)cc(C)[nH]c3=O)c3ccc(=O)[nH]c3c2)ccc1F | 18400 nM | 12300 nM | 0.94 nM | 5.43 nM | – | Active | 46% | 17.3% | 0.8% | 3.63% | 78.2% | 39% | Active | 5.85% | 33.3% | 4.32% | 58.5%
7 | COc1ccc2cc(-c3cc(C(=O)NCc4c(C)cc(C)[nH]c4=O)c4ccc(=O)[nH]c4c3)ccc2c1 | > 50000 nM | 20600 nM | 6.63 nM | 7.48 nM | – | – | – | – | – | – | – | – | – | – | – | – | –
8 | COc1cccc(OC)c1-c1cc(C(=O)NCc2c(C)cc(C)[nH]c2=O)c2ccc(=O)[nH]c2c1 | > 50000 nM | 38300 nM | 5.84 nM | 8.87 nM | – | – | – | – | – | – | – | – | – | – | – | – | –

The next lines start with results.

Row | IC50 (HeLa [1]) | IC50 (A549 [2]) | IC50 [3] | IC50 [4] | inhibition [11] | inhibition [17] | SMILES | Activity (A549 [5]) | Activity (A549 [6]) | Activity (A549 [7]) | Activity (A549 [8]) | Activity (A549 [9]) | Activity (HeLa [10]) | inhibition (HeLa [12]) | Activity (HeLa [13]) | Activity (HeLa [14]) | Activity (HeLa [15]) | Activity (HeLa [16])
9 | 46300 nM | > 50000 nM | 8.21 nM | 9.41 nM | – | – | Cc1cc(C)c(CNC(=O)c2cc(-c3ccc(Oc4ccccc4)cc3)cc3[nH]c(=O)ccc23)c(=O)[nH]1 | – | – | – | – | – | – | – | – | – | – | –
10 | 33800 nM | 27600 nM | 2.74 nM | 7.76 nM | – | – | Cc1ccc(-c2cc(C(=O)NCc3c(C)cc(C)[nH]c3=O)c3ccc(=O)[nH]c3c2)cc1 | – | – | – | – | – | – | – | – | – | – | –
11 | 25300 nM | 11000 nM | 1.01 nM | 5.68 nM | Dose-Dependent Effect | – | Cc1cc(C)c(CNC(=O)c2cc(-c3ccc(Br)cc3)cc3[nH]c(=O)ccc23)c(=O)[nH]1 | 40% | 51.8% | 1.07% | 12.4% | 34.7% | 45% | Active | 4.72% | 16.5% | – | –
12 | 29400 nM | 13400 nM | 1.67 nM | 7.4 nM | – | – | Cc1cc(C)c(CNC(=O)c2cc(-c3ccc(-c4ccccc4)cc3)cc3[nH]c(=O)ccc23)c(=O)[nH]1 | 42% | 47.3% | 3.6% | 10.1% | 38.4% | – | – | – | – | – | –
13 | 43200 nM | 19600 nM | 6.27 nM | 10.3 nM | – | – | Cc1cc(C)c(CNC(=O)c2cc(-c3ccccc3)cc3[nH]c(=O)ccc23)c(=O)[nH]1 | – | – | – | – | – | – | – | – | – | – | –
14 | > 50000 nM | 30300 nM | 7.42 nM | 12.2 nM | – | – | Cc1cc(C)c(CNC(=O)c2cc(-c3cccc4ccccc34)cc3[nH]c(=O)ccc23)c(=O)[nH]1 | – | – | – | – | – | – | – | – | – | – | –

From ChEMBL document CHEMBL5634165, “Design, synthesis and activity evaluation of quinolinone derivatives as EZH2 inhibitors” (Bioorg Med Chem Lett, 2024)
